Data reported in PMC10824666 (Nature Cancer, 2023).
Like-named read-outs stand apart in the source and are kept apart here. Blank lines part the entries; values can stand above or below the compound they belong to.

Assays:
Test in all cases: biochemical
Design in all cases: Eurofins DiscoverX kinase panel, competitive binding assay at 1 uM, percent of DMSO control
Conditions in all cases: competitive binding, percent of DMSO control
TAOK2 = molecular target: T1, TAOK2 (Homo sapiens, UniProt Q9UL54)
T1 sequence (Q9UL54 1-1235): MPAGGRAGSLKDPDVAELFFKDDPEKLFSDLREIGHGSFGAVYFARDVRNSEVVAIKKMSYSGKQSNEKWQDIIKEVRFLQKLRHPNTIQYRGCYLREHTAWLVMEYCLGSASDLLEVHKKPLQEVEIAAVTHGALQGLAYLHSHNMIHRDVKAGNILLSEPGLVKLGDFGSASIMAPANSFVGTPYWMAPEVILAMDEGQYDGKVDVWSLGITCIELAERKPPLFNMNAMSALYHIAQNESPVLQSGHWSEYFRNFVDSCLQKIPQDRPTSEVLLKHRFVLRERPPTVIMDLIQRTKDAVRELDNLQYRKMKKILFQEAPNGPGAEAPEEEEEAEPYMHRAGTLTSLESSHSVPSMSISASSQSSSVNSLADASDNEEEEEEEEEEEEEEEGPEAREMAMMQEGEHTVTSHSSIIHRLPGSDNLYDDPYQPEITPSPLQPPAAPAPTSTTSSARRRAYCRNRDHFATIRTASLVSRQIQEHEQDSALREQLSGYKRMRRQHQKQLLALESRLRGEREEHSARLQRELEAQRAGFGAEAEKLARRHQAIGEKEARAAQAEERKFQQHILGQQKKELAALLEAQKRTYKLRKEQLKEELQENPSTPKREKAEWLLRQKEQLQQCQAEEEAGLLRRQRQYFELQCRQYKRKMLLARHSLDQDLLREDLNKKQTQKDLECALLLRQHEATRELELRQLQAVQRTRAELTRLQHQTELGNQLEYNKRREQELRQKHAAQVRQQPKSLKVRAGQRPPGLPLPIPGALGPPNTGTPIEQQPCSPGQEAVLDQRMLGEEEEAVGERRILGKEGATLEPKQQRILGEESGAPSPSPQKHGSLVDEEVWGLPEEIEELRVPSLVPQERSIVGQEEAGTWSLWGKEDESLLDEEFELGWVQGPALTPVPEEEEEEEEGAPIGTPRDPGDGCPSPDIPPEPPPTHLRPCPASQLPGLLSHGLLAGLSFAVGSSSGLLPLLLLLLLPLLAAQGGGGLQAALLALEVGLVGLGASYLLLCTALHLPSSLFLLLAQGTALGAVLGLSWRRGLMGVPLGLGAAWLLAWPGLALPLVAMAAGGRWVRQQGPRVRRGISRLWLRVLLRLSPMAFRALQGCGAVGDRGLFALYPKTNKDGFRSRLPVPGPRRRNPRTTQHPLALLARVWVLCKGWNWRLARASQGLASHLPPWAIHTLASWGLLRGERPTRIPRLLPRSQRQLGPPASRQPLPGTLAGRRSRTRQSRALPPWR
In short: (§1)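 Single-point profiling at 1 µM compound in a competition-binding format against 96 kinases, read out as POC relative to control; n = 1.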

LYN = LYN (Homo sapiens, UniProt P07948)
In short: as §1

PI3K alpha = molecular target: T2, PI3K alpha (Homo sapiens, UniProt P42336)
T2 construct: gene PIK3CA
In short: as §1

PDGFRB = PDGFRB (Homo sapiens, UniProt P09619)
In short: as §1

INSR = INSR (Homo sapiens, UniProt P06213)
In short: as §1

[1] = read-out: Kinome Profiling performed by Eurofins DiscoverX / AM-1882, 1.0 µM / POC
[2] = read-out: Kinome Profiling performed by Eurofins DiscoverX / AM-5308, 1.0 µM / POC
[3] = read-out: Kinome Profiling performed by Eurofins DiscoverX / AM-0277, 1.0 µM / POC

Sequence of INSR (P06213 whole entry): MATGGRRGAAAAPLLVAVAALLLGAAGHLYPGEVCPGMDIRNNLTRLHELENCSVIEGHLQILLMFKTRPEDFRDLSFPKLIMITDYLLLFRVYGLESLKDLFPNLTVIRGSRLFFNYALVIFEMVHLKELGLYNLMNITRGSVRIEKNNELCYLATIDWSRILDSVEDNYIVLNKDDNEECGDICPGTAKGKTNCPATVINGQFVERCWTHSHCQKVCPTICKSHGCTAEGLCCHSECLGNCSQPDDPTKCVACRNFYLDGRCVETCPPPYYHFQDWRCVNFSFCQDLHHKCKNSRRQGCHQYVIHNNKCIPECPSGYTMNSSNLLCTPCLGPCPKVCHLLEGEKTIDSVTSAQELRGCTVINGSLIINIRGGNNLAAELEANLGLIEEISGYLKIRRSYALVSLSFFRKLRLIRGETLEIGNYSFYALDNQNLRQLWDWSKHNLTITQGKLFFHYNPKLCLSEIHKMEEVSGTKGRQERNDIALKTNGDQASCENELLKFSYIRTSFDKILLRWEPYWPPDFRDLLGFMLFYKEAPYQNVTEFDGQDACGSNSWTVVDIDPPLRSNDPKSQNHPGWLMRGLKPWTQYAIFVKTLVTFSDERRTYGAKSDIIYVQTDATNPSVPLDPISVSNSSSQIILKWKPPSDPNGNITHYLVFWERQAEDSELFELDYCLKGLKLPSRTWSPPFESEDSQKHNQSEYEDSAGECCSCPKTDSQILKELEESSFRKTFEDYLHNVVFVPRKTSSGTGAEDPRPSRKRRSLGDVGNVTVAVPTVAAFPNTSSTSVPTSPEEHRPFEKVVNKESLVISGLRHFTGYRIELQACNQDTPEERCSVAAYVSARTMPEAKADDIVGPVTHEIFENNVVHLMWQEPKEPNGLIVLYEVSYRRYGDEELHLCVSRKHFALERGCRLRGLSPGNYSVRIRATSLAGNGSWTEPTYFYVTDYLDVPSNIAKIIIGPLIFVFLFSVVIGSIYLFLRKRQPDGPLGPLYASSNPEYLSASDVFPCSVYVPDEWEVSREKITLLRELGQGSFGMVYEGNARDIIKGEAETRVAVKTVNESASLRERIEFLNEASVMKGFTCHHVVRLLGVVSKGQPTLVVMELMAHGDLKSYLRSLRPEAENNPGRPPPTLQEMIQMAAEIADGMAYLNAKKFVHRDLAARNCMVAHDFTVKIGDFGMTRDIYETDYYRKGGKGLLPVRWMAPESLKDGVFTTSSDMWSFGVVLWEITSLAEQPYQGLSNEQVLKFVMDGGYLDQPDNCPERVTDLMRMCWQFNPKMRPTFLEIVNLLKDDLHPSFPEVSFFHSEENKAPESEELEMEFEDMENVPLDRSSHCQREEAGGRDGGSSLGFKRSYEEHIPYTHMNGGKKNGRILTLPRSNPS
Sequence of PDGFRB (P09619 whole entry): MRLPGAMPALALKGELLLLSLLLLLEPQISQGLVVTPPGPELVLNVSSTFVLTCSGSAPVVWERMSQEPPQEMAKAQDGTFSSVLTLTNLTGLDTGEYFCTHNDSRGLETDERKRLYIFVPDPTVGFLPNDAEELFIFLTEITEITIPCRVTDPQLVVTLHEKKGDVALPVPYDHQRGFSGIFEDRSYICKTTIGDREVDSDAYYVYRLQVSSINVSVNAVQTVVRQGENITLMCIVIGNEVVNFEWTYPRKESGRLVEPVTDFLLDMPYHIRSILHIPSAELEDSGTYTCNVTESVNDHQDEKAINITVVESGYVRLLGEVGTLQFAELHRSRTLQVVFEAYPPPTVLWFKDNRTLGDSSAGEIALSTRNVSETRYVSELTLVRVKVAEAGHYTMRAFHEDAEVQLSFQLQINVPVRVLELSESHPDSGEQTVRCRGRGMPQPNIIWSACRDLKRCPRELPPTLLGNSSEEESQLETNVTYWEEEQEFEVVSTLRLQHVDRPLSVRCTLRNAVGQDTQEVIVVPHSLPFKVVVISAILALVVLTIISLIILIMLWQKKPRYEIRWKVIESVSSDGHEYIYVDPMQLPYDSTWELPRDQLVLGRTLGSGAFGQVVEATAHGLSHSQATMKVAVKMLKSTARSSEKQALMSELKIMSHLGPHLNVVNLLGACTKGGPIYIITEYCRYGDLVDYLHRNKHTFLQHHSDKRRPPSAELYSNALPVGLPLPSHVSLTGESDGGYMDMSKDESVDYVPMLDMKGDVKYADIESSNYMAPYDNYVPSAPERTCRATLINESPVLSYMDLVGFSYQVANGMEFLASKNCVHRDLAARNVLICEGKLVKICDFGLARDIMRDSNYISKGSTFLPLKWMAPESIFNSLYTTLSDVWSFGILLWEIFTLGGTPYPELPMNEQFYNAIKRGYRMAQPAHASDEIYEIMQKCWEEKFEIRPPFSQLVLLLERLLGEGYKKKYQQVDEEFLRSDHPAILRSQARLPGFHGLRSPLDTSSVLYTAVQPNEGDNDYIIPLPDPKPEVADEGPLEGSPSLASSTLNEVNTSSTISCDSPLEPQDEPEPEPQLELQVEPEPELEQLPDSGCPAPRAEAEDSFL
Sequence of LYN (P07948 whole entry): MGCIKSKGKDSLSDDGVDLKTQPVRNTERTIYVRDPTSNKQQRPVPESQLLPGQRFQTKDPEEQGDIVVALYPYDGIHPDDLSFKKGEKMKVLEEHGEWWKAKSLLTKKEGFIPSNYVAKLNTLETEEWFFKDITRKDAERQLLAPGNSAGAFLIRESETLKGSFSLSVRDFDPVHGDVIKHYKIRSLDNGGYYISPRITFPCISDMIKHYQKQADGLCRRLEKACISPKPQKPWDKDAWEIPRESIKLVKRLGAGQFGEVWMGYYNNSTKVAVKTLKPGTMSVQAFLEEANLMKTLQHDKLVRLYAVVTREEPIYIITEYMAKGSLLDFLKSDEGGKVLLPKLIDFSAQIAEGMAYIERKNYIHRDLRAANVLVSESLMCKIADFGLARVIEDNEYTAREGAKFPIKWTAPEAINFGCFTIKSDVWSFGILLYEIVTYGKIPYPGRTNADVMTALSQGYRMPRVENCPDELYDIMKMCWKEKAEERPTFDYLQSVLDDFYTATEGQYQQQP
T2 sequence (P42336 whole entry): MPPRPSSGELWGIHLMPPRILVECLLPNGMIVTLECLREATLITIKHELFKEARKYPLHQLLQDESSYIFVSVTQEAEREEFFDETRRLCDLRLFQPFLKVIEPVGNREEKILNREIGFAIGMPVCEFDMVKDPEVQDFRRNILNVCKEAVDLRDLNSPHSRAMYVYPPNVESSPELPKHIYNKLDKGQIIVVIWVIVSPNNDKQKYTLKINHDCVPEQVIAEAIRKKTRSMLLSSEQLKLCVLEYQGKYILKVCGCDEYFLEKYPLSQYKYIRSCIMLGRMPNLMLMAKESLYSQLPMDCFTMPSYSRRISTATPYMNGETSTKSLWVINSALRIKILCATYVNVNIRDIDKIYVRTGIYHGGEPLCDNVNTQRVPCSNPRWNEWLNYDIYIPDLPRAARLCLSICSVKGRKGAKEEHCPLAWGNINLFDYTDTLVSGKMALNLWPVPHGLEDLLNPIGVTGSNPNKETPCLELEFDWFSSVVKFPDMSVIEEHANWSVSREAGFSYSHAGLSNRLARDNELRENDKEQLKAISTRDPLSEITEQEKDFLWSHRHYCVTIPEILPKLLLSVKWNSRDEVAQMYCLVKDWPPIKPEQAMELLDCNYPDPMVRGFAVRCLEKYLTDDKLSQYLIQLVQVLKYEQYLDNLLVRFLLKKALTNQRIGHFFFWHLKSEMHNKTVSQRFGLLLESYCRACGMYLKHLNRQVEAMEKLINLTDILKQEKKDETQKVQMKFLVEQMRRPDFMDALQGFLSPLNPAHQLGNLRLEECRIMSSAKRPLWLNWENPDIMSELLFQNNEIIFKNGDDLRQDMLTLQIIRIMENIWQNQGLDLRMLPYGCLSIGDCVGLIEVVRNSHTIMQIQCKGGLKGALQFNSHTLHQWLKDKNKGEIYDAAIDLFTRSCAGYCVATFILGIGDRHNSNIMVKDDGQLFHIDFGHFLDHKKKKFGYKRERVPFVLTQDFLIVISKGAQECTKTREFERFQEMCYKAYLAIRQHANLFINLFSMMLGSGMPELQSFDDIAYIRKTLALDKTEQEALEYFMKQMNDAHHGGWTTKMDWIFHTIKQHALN

- remaining activity at 1 µM (TAOK2; [1]): 81.5%
- remaining activity at 1 µM (LYN; [1]): 99.5%
- remaining activity at 1 µM (PI3K alpha; [1]): 100%
- remaining activity at 1 µM (PDGFRB; [1]): 98%
- remaining activity at 1 µM (INSR; [1]): 100%
Structure (SMILES): CC(C)(C)NS(=O)(=O)c1cccc(NC(=O)c2ccc(S(=O)(=O)NC(C)(C)C)cc2N2CCC3(CC2)CC3)c1 [AM-1882]

- remaining activity at 1 µM (TAOK2; [2]): 81%
- remaining activity at 1 µM (LYN; [2]): 86.5%
- remaining activity at 1 µM (PI3K alpha; [2]): 91.5%
- remaining activity at 1 µM (PDGFRB; [2]): 97.5%
- remaining activity at 1 µM (INSR; [2]): 100%
Structure (SMILES): C[C@@H]1CN(c2cccc(NC(=O)c3ccc(NS(=O)(=O)CCO)cc3N3CCC4(CC3)CC4)n2)CCO1 [AM-5308]

- remaining activity at 1 µM (TAOK2; [3]): 98%
- remaining activity at 1 µM (LYN; [3]): 100%
- remaining activity at 1 µM (PI3K alpha; [3]): 100%
- remaining activity at 1 µM (PDGFRB; [3]): 94%
- remaining activity at 1 µM (INSR; [3]): 100%
Structure (SMILES): CC(C)(CO)Nc1ccc(C(=O)Nc2cccc(S(=O)(=O)C3CCCC3)c2)c(N2CCC3(CC2)CC3)n1 [AM-0277]
